The values below come from PubChem BioAssay (NCI).

Test systems include CAKI-1 renal; CCRF-CEM leukemia; HS 578T breast; K-562 leukemia; MCF7 breast; MDA-MB-231 breast; SF-295 CNS; SF-539 CNS; SK-MEL-28 melanoma; TK-10 renal.
Common to all, as to assay: growth of human tumour cells (NCI), 48 h

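Cultured in 96-well plates, cells were exposed to test compound for 48 hours across five concentrations. Here, GI50 denotes the concentration required for 50% inhibition of growth. TGI denotes the concentration required for complete inhibition of growth.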

Consider `Cc1[nH]nc(C(F)(F)F)c1Cc1sc2c(c1C(=O)N1C[C@](C)(O)CO1)c(=O)n(C)c(=O)n2C(C)C`, for which the GI50 is more than 100 µM with CAKI-1 renal; more than 100000 nM in the assay on CCRF-CEM leukemia; more than 100000 nM in the assay on HS 578T breast; more than 100000 nM in the assay with MCF7 breast; more than 100 µM in the assay with MDA-MB-231 breast; more than 100000 nM with SF-295 CNS. Further, the GI50 with SF-539 CNS, in the assay on SK-MEL-28 melanoma and in the assay with TK-10 renal was more than 100 µM each time. Besides, the TGI with CAKI-1 renal, with CCRF-CEM leukemia, with HS 578T breast, in the assay on K-562 leukemia, with MCF7 breast and in the assay with MDA-MB-231 breast was more than 100 µM in each case. In addition, the TGI with SF-295 CNS, with SF-539 CNS, in the assay on SK-MEL-28 melanoma and with TK-10 renal was more than 100 µM each time.

As for `Clc1cnc(Nc2ccc(OCCN3CCCC3)cc2)nc1NCc1ccco1`, the GI50 in the assay with CAKI-1 renal was 1.63 µM; with CCRF-CEM leukemia it was 2540 nM; in the assay on HS 578T breast it was 1390 nM; with K-562 leukemia, 3.19 µM; in the assay on MCF7 breast it was 1510 nM; in the assay with MDA-MB-231 breast, 2.48 µM. Further, the GI50 in the assay with SF-295 CNS was 2180 nM; in the assay on SF-539 CNS, 1.67 µM; in the assay on SK-MEL-28 melanoma it was 3.29 µM; in the assay with TK-10 renal it was 2.28 µM. For the same molecule, the TGI with CAKI-1 renal is 26.6 µM; in the assay on CCRF-CEM leukemia, 9.5 µM; in the assay on HS 578T breast, 5.18 µM; in the assay with K-562 leukemia, 52.6 µM; with MCF7 breast, 10.2 µM; in the assay with MDA-MB-231 breast, 13.5 µM. Moreover, the TGI with SF-295 CNS turned out to be 6.63 µM; with SF-539 CNS, 3.64 µM; in the assay on SK-MEL-28 melanoma, 10.7 µM; in the assay with TK-10 renal it was 11.8 µM.

On to `COC(=O)NC(Cc1ccccc1)NC(=O)OC(C)(C)C` (stereo not drawn), for which the TGI with CAKI-1 renal, in the assay on CCRF-CEM leukemia, with HS 578T breast, in the assay with K-562 leukemia, in the assay with MCF7 breast and in the assay with MDA-MB-231 breast was more than 100 µM in each case. Further, the TGI in the assay with SF-295 CNS, with SF-539 CNS, with SK-MEL-28 melanoma and in the assay on TK-10 renal was more than 100 µM in each case.

As for `O=C(Nc1ccc(Cl)c(Cl)c1)c1ccc(NC2=C(Cl)C(=O)N(Cc3ccccc3)C2=O)cc1`, the GI50 with CAKI-1 renal was 3 µM; in the assay on CCRF-CEM leukemia, 2300 nM; in the assay on HS 578T breast it was 5370 nM; with K-562 leukemia it was 2.34 µM; in the assay on MCF7 breast it was 2100 nM; in the assay on MDA-MB-231 breast it was 3.06 µM. Besides, the GI50 in the assay with SF-295 CNS was 13600 nM; with SF-539 CNS, 16 µM; with SK-MEL-28 melanoma, 21.2 µM; in the assay with TK-10 renal, 18.8 µM. Moreover, the TGI in the assay on CAKI-1 renal turned out to be 12.6 µM; with CCRF-CEM leukemia it was 7.79 µM; in the assay with HS 578T breast, 27 µM; in the assay on K-562 leukemia, 5.93 µM; with MCF7 breast it was 4.82 µM; in the assay on MDA-MB-231 breast, 9.41 µM. In addition, the TGI in the assay on SF-295 CNS amounted to 34.7 µM; in the assay on SF-539 CNS, 30.1 µM; in the assay on SK-MEL-28 melanoma, 63.5 µM; with TK-10 renal it was 39.2 µM.

As to `O=C(Nc1ccc(Br)c2ccccc12)c1ccc2ccccc2c1O`, the TGI was 25.2 µM with CAKI-1 renal; more than 100 µM in the assay on CCRF-CEM leukemia; 13.5 µM with HS 578T breast; more than 100 µM in the assay with K-562 leukemia; 25.8 µM in the assay on MCF7 breast; 16.8 µM in the assay with MDA-MB-231 breast. Moreover, the TGI worked out at 8.65 µM with SF-295 CNS, 24.9 µM with SF-539 CNS, 48.1 µM in the assay on SK-MEL-28 melanoma and 30.3 µM with TK-10 renal.

As to `CC12CCC(C1)C(C)(C)C2OC(=O)c1ccccc1N` (stereo not drawn), the TGI in the assay with CAKI-1 renal is 29.9 µM; in the assay with CCRF-CEM leukemia it was 3.96 µM; in the assay on HS 578T breast, 31.5 µM; in the assay on K-562 leukemia, 32.1 µM; in the assay on MCF7 breast it was 31.8 µM; in the assay on MDA-MB-231 breast, 30.2 µM. Also, the TGI in the assay on SF-295 CNS was 35.6 µM; in the assay on SF-539 CNS, 33.7 µM; with SK-MEL-28 melanoma it was 31.9 µM; with TK-10 renal, 32.8 µM.

For the molecule `COC(=O)C1=C(C)NC(=S)NC1c1ccc(N(CCCl)CCCl)cc1Cl` (stereo not drawn), the TGI with CAKI-1 renal was 14.6 µM; in the assay with CCRF-CEM leukemia, more than 32.7 µM; in the assay with HS 578T breast, more than 100 µM; in the assay with K-562 leukemia, more than 57.5 µM; with MCF7 breast it was 66.1 µM; in the assay on MDA-MB-231 breast, more than 100 µM. Moreover, the TGI in the assay on SF-295 CNS was more than 82.4 µM; with SF-539 CNS it was more than 100 µM; with SK-MEL-28 melanoma it was more than 100 µM; in the assay with TK-10 renal, 98.6 µM.

Take `COc1cc2ncnc(Oc3ccc(NC(=O)Nc4ccc(CN5CCOCC5)c(C(F)(F)F)c4)c4ccccc34)c2cc1OC`: the GI50 with CAKI-1 renal is 0.454 µM; with CCRF-CEM leukemia, 1180 nM; with HS 578T breast, 1280 nM; in the assay on MCF7 breast it was 363 nM; in the assay with MDA-MB-231 breast, 1.2 µM; with SF-295 CNS, 1360 nM. The GI50 is 1.36 µM in the assay on SF-539 CNS, 0.666 µM in the assay with SK-MEL-28 melanoma and 0.445 µM in the assay with TK-10 renal. In addition, the TGI with CAKI-1 renal was 3.16 µM; with CCRF-CEM leukemia, 40.7 µM; with HS 578T breast, 7.27 µM; with K-562 leukemia, 1.5 µM; in the assay with MCF7 breast it was 10.7 µM; in the assay with MDA-MB-231 breast, 6.32 µM. Moreover, the TGI turned out to be 5.54 µM with SF-295 CNS, 16.1 µM with SF-539 CNS, 3.03 µM with SK-MEL-28 melanoma and 6.95 µM in the assay on TK-10 renal.

`Clc1ccc2c(NC3CCC(N4CCCCC4)CC3)ccnc2c1` (stereo not drawn): the TGI is 50.7 µM with CAKI-1 renal; more than 100 µM in the assay on CCRF-CEM leukemia; 56.4 µM with HS 578T breast; 62.1 µM with K-562 leukemia; more than 100 µM in the assay on MCF7 breast; 40 µM in the assay on MDA-MB-231 breast. Moreover, the TGI with SF-295 CNS came out at 36.8 µM; in the assay on SF-539 CNS, 36.2 µM; with SK-MEL-28 melanoma, 36.8 µM; with TK-10 renal it was 48.8 µM.

Turning to `N#C/C(=C\c1ccc[nH]1)c1cc(-c2ccc(Cl)cc2)nn1-c1ccccc1`, the GI50 in the assay with CAKI-1 renal is 3.16 µM; in the assay with CCRF-CEM leukemia it was 3590 nM; in the assay with HS 578T breast it was 2170 nM; in the assay on K-562 leukemia, 3.24 µM; in the assay with MCF7 breast it was 449 nM; with MDA-MB-231 breast, 5.78 µM. The GI50 was 2800 nM in the assay on SF-295 CNS, 6.05 µM in the assay on SF-539 CNS, 4.57 µM with SK-MEL-28 melanoma and 3.12 µM with TK-10 renal. Moreover, the TGI in the assay with CAKI-1 renal is more than 100 µM; in the assay with CCRF-CEM leukemia it was 22 µM; in the assay with HS 578T breast, 14.1 µM; in the assay on K-562 leukemia, 10.9 µM; in the assay on MCF7 breast, 19.7 µM; in the assay with MDA-MB-231 breast, 33 µM. The TGI with SF-295 CNS was 13 µM; with SF-539 CNS it was 18.9 µM; with SK-MEL-28 melanoma, 17.5 µM; with TK-10 renal, 21.1 µM.
